Source: ChEMBL document CHEMBL1143952, “Synthesis and characterization of carnitine nitro-derivatives” (Bioorg Med Chem, 2008)

Tests used:
[1] = target: T1, Organic cation/carnitine transporter 2 (Rattus norvegicus, UniProt O70594); assay: Inhibition of rat kidney brush border membrane OCTN2 transporter assessed as [3H]carnitine uptake after 10 mins
T1 sequence (O70594 whole entry): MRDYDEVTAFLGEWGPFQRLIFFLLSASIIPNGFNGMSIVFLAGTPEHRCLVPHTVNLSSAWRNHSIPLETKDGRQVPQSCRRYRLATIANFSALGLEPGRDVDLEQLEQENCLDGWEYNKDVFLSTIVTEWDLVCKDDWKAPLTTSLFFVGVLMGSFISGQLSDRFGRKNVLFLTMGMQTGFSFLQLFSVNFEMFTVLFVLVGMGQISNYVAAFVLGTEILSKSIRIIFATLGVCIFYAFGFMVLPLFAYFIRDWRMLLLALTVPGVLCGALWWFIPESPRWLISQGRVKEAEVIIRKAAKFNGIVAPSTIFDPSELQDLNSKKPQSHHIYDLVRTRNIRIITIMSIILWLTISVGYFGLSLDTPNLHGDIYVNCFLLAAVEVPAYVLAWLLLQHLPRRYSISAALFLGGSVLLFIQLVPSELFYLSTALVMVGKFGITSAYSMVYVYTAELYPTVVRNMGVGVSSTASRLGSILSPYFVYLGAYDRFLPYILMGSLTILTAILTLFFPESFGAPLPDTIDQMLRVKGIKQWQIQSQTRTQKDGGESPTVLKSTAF

[2] = Metabolic stability in phosphate buffer saline assessed as biotransformation after 24 hrs relative to unaltered compound; format: ADME; settings: phosphate buffered saline; read-out: Activity
[3] = Metabolic stability in human RBC assessed as biotransformation after 24 hrs relative to unaltered compound; format: ADME, cell-based, Erythrocyte; settings: red blood cells (RBC), read-out: Activity
[4] = target: T2, OCTN2 (organic cation/carnitine transporter 2) (Rattus norvegicus, UniProt O70594); assay: Inhibition of rat kidney brush border membrane OCTN2 transporter assessed as [3H]carnitine uptake after 30 mins relative to control; set-up: scale not given: the % may be the effect or the level left; settings: probe [3H]carnitine, read-out: Activity
T2 sequence (O70594 whole entry): T1 sequence (O70594 whole entry)

[5] = Metabolic stability in human RBC assessed as nitrite or nitrate production after 24 hrs; format: ADME, cell-based; settings: erythrocyte
[6] = Metabolic stability in human saliva assessed as biotransformation after 24 hrs relative to unaltered compound; format: ADME; settings: read-out: Activity
[7] = Metabolic stability in human plasma assessed as biotransformation after 24 hrs relative to unaltered compound

IC50 [1] [µM] | degraded at 24 h [2] [%] | metabolised at 24 h [3] [%] | activity at 0.5 h [4] [%] | Activity [5] [nmol/mL] | metabolised at 24 h [6] [%] | metabolised at 24 h [7] [%] | Compound
76 | 100 | 100 | 20 | 23 | 100 | 45 | C[N+](C)(C)C[C@H](CC(=O)O)OC(=O)CCCCCO[N+](=O)[O-].[Cl-]
 | 100 | 100 | 1.5 | 22 | 100 | 100 | CCOC(=O)C[C@@H](C[N+](C)(C)C)OC(=O)CCCCCO[N+](=O)[O-].[Cl-]
443 | 100 | 73 | 3.1 | 40 | 75 | 100 | CCOC(=O)C[C@@H](C[N+](C)(C)C)OC(=O)CCCCCCCCCCCCCCCO[N+](=O)[O-].[Cl-]
53 | 100 | 56 | 16.3 | 62 | 100 | 100 | C[N+](C)(C)C[C@H](CC(=O)O)OC(=O)CCCCCCCCCCCCCCCO[N+](=O)[O-].[Cl-]
